The results in this text go back to patent publication US20200306283A1, “CANCER TREATMENT AND METASTASIS INHIBITION USING AN ANTI-CANCER STEM CELL AGENT IN COMBINATION WITH A NEU1 SIALIDASE INHIBITOR OR A CYTOKINE INHIBITOR AFTER PRIMARY CANCER TREATMENT” (priority 2016, published 2020).

One experiment relates to SW-620 cells. Kind of experiment: SW-620 cells treated with cytokines with or without Irinotecan, flow cytometry for stem cell markers and apoptosis. The class given is cell-based, human. The following applies: SW-620, cytokines 24 hours then 2 μM Irinotecan 36 hours; zero in non-treated control cells. The procedure:
SW-620 cells, a human colorectal adenocarcinoma cell line, were treated with cytokines alone or in combination including IL-6, TGF-beta, HGF, PGE-2, IL-6+PGE-2 and TGF-beta+HGF for 24 hours and compared to untreated SW-620 cells as control. Some treated and untreated SW-620 cells were then exposed to 2 μM Irinotecan for 36 hours at which point cells were harvested for flow cytometry to assess for stem cell markers and markers of apoptosis. The percentage of CD44+CD133− cells following treatment with various cytokine and cytokine cocktails is depicted in FIG. 10. Compared to non-cytokine treated cells, combinations with IL-6+PGE-2, and TGF-beta+HGF increased the number and percentage of cells that were CD44+CD133− as shown in FIG. 10 (stem cells). FIG. 11 depicts the percentage of CD44+CD133− cells following treatment with various cytokines and Irinotecan. […]
Additionally, the percentage of CD44-CD133+ cells following treatment with various cytokines and cytokines cocktails was determined as depicted in FIG. 16. The percentage of CD44-CD133+ cells following treatment with various cytokines and Irinotecan was measured as depicted in FIG. 17. The percentage of CD44-CD133+ cells following treatment with various cytokine cocktails and Irinotecan was measured as depicted in FIG. 18. […]
In general terms: A flow cytometer gives signals particle by particle.

Another experiment deals with HCT-15 cells. Kind of experiment: Cell subpopulations (CD44/CD24) in HCT-15 cell line after cytokine exposure, imaging flow cytometry. Type of experiment: cell-based. The arrangement: unit not given here. The conditions noted are these: HCT-15 cells after exposure to cytokines singly or in pairs. The procedure:
Two authenticated colorectal carcinoma cell lines, HCT-15 and SW-620, were used to test the effect of different cytokine and cytokine cocktails, including IL-6, HGF, PGE-2, TGF-beta and MMP-9 alone or in a cocktail, on cell proliferation, EMT and cancer stem cell populations.
In order to evaluate stem cell populations, cells were synchronized by serum starvation for 72 hours before seeding in 24-well ultra low attachment plates at a density of 200,000 cells/well. Cells were then detached using trypsin EDTA and washed twice with PBS (without Calcium or Magnesium). A cell proliferation dye, eFluor 450 was used to label cells. Cells were grown with DMEM with high glucose and 2 mM Gluatmine without FBS in the presence of selected cytokines and or cytokine cocktails over a period of 72 hrs.
Cells that were grown in 5% serum were stained with the following antibody cocktails: CD24FITC, CD44PE and CD24FITC, CD133PE. Cells were also stained with a fixable live/dead efluor dye 506 to exclude dead cells. In parallel, cells were grown in the presence of 5% serum to evaluate CSC markers.
(§1) Cells were fixed in 1% Paraformaldehyde for 15 minutes at room temperature and run on Flowsight using 2 lasers (488 nm at 60 mW and 405 nm at 30 mW). For cell lines, 100,000 events were collected whilst for enriched CTCs all events were collected until the sample finished.
Flow cytometry data was analysed using IDEAS software. Double events, out of focus events, CD45PercPCy5.5 positive cells (in case of enriched CTCs), dead cells and non-nucleated events were eliminated from the fluorescence analysis of the cell population. FIG. 2 depicts scatterplots of flow cytometry experiments showing the enriched CTCs stained with an antibody containing CD44 after treatment with various cytokines and cytokine cocktails. Hoescht 33258 dye was used to stain nuclei in the case of the HCT-15 cell line and enriched CTCs. All experiments were stained with a fixable live/dead dye eFluor 506 to exclude dead cells.
To evaluate which cocktail combinations were most likely involved in cell proliferation of presumed quiescent stem cells or de-differentiated stem cell-like cells, four cytokines, IL-6, HGF, PGE-2 and TGF-beta were added singly or in pairs to HCT-15 cells. Results of combinations that influenced cell proliferation of HCT-15 cells in culture are presented. […] FIG. 4 depicts cell proliferation of subpopulations in the HCT-15 cell line after exposure to various cytokines and cytokine cocktails.

Experiment [1] deals with enriched circulating tumour cells from a patient with metastatic prostate cancer. Kind of experiment: Cell proliferation / cancer stem cell markers (EpCAM, CD44, CD133) in enriched CTCs cultured with cytokine cocktails. Type of experiment: cell-based, human. The following applies: for EpCAM + CD133+ cell subpopulation / EpCAM + CD133− cell subpopulation / EpCAM − CD133+ cell subpopulation / EpCAM − CD133− cell subpopulation: CD133 PE antibody cocktail; for EpCAM + CD44+ cell subpopulation / EpCAM + CD44− cell subpopulation / EpCAM − CD44+ cell subpopulation / EpCAM − CD44− cell subpopulation: cell culture period 8 days. The protocol:
as §1
Flow cytometry data was analysed using IDEAS software. Double events, out of focus events, CD45PercPCy5.5 positive cells (in case of enriched CTCs), dead cells and non-nucleated events were eliminated from the fluorescence analysis of the cell population. FIG. 2 depicts scatterplots of flow cytometry experiments showing the enriched CTCs stained with an antibody containing CD44 after treatment with various cytokines and cytokine cocktails.
In order to determine if selected cytokines influence cell proliferation of circulating tumour cells (CTCs), whole blood was collected from a patient with metastatic prostate cancer. Circulating tumour cells were enriched from whole blood using RosetteSep CTC Enrichment cocktail. Briefly, samples of whole blood were incubated with RosetteSep (anti CD 56 for 20 minutes at room temperature). Phosphate buffered saline containing 2% Fetal Bovine Serum was added to the samples and layered on a Ficoll Paque gradient. After centrifugation, the supernatant which contained CTCs was washed twice with PBS containing 2% FBS. Equal volumes of the cell suspension were seeded into a 24-well ultra-low attachment polystyrene plate. […] FIG. 3 depicts scatterplots of flow cytometry experiments enriched CTCs stained with an antibody containing CD133 after treatment with various cytokines and cytokine cocktails.
FIG. 6 depicts cell proliferation of subpopulations in cultured CTCs after exposure to various cytokines and cytokine cocktails. Cells were stained using an antibody containing CD44 PE.
Cells were stained using an antibody containing CD133 PE.

Experiment [2] has as its system Panc1, Panc1-gemr, Panc1-cisr and Panc1-gemr/cisr cells. Description: Immunocytochemistry of E-, N- and VE-cadherin on Panc1 and chemoresistant Panc1 cells after Tamiflu (FIG. 25). The class given is cell-based, human. The following applies: Tamiflu 600 μg/mL for 24 hours, Panc1 and drug resistant lines. The procedure: Turning to FIG. 25, oseltamivir phosphate by itself was able to reverse a partial EMT in human PANC1 cancer cell lines, including drug resistant cancer cell lines as evidenced by an upregulation in the epithelial marker E-cadherin and a downregulation in the mesenchymal marker N-cadherin. Expression of e-cadherin, n-cadherin, and Ve-cadherin on the surface of Pancl, Pancl-gemr, Pancl-cisr, and Pancl-gemr/cisr cells were determined following treatment with Tamiflu® 600 μg/mL for 24 hours. Immunocytochemistry was performed on fixed, nonpermeabilized cells. The indicated primary antibodies for Ecadherin, N-cadherin, and Ve-cadherin were used, followed by alexa Fluor® 594 (life Technologies inc, Burlington, ON, Canada) secondary antibody for the primary antibody against n-cadherin and Dylight™ 488 (santa cruz Biotechnology, inc, santa cruz, ca, Usa) secondary antibody for primary antibodies against e-cadherin and Ve-cadherin. The background controls had no primary antibody during the staining procedure. The stained cells were visualized after 24 hours using a Zeiss M2 Imager fluorescence microscope (Carl Zeiss ag, Oberkochen, germany) at 400× magnification. Images are representative of at least four fields of view in three separate trials. Quantitative analysis was done by assessing the density of cell staining corrected for background in each panel using corel Photo Paint 8.0 software (Corel Corporation, Ottawa, ON, Canada). each bar in the figures represents the mean (±standard error of the mean) corrected density of culture cell staining for equal cell density (5×10^5 cells) within the respective images. P-values represent significant differences at 95% confidence using Dunnett's multiple comparison test compared with untreated control group. (Abbreviations: 1° ab=primary antibody; Pancl-gemr=Pancl cells with established chemoresistance to 0.01 μM gemcitabine; Pancl-gemr/cisr=Pancl cells with established chemoresistance to a combination of 0.01 μM gemcitabine and 80 μM cisplatin; cad=cadherin; Bkg=background; se=standard error.)

In experiment [3] the test system is enriched circulating tumour cells from a patient with colorectal cancer. Kind of experiment: Cultured enriched CTCs from a colorectal cancer patient treated with IL-6, IL-8 or PDGFBB (EpCAM, CD133, Lgr5 flow cytometry). The class given is cell-based, human. The following applies: cultured CTCs from colorectal cancer patient. From the text:
A blood sample was collected from a patient with colorectal cancer six days after surgery. Blood samples were enriched for CTCs using RosetteSep CD 56 kit according to standard protocol. Prior to cell culture, cells were stained with the following antibody cocktail: EpCAM A488, CD133PE, CD 45 PerCP Cy5.5, and Lgr5-PE-Vio770. Cells were either cultured in low attachment well plates without cytokines (control cells) or with three different cytokines (IL-6, IL-8 or PDGFBB).
Flow cytometry data was analysed using IDEAS software. Double events, out of focus events, CD45PercPCy5.5 positive cells, dead cells and non-nucleated events were eliminated from the fluorescence analysis of the cell population. Hoescht 33258 dye was used to stain nuclei of enriched CTCs. All experiments were stained with a fixable live/dead dye eFluor 506 to exclude dead cells.

[4] abbreviates: listed as Oseltamivir Phosphate.

On to `CCCCC[C@H](O)/C=C/[C@H]1[C@H](O)CC(=O)[C@@H]1C/C=C\CCCC(=O)O` [PGE-2, prostaglandin E2, reference compound], for which the “percentage of CD44+CD133− stem cells” value in the experiment on SW-620 cells is recorded as “enriched”. Moreover, in the experiment with HCT-15 cells, the “CD24 + CD44− cell subpopulation” value was 58.7, the “CD44 + CD24+ cell subpopulation” value is recorded as 7.3, the “CD44 + CD24− cell subpopulation” value was determined as 0.61 and the “CD44 − CD24− cell subpopulation” value was determined as 32.4. The “EpCAM-CD44+ cell sub-population” value in experiment [1] (8 days culture, no serum, CD44PE antibody cocktail) came to 4.23 % gated. Besides, in experiment [1], the “EpCAM + CD133+ cell subpopulation” value is 10.4 percentages of gated subpopulations, the “EpCAM + CD133− cell subpopulation” value is given as 0 percentages of gated subpopulations, the “EpCAM − CD133+ cell subpopulation” value is 86.7 percentages of gated subpopulations and the “EpCAM − CD133− cell subpopulation” value was 2.61 percentages of gated subpopulations. Also, in experiment [1] (CD44PE antibody cocktail), the “EpCAM + CD44+ cell subpopulation” value is recorded as 27.2 percentage of gated cells, the “EpCAM + CD44− cell subpopulation” value was 1.75 percentage of gated cells, the “EpCAM − CD44+ cell subpopulation” value is 4.23 percentage of gated cells and the “EpCAM − CD44− cell subpopulation” value was 65.5 percentage of gated cells.

For the compound `CCOC(=O)C1=C[C@@H](OC(CC)CC)[C@H](NC(C)=O)[C@@H](N)C1` [oseltamivir phosphate], in experiment [2], the “E-cadherin expression on cell surface” value is on record as “upregulation”, the “N-cadherin expression on cell surface” value is “downregulation” and the “VE-cadherin expression on cell surface” value is listed as “significant downregulation”. Moreover, in experiment [2] (setting [4]), the “E-cadherin expression on cell surface” value is reported as “statistically significant upregulation in the epithelial marker E-Cadherin in all 4 cell lines tested with the exception of the double resistant pancreatic cell line” and the “N-cadherin expression on cell surface” value is given as “Downregulation of N cadherin was seen in all cell lines tested”.

Take “HGF: Hepatocyte Growth Factor added to cancer cells in culture”: in the experiment on HCT-15 cells, the “CD24 + CD44− cell subpopulation” value is 58.6, the “CD44 + CD24+ cell subpopulation” value came out at 3.29, the “CD44 + CD24− cell subpopulation” value came to 0.31 and the “CD44 − CD24− cell subpopulation” value is recorded as 35.9. Further, in experiment [1], the “EpCAM + CD133+ cell subpopulation” value is recorded as 17.2 percentages of gated subpopulations, the “EpCAM + CD133− cell subpopulation” value was 0.2 percentages of gated subpopulations, the “EpCAM − CD133+ cell subpopulation” value is 80.8 percentages of gated subpopulations and the “EpCAM − CD133− cell subpopulation” value was 1.58 percentages of gated subpopulations. In addition, in experiment [1] (CD44PE antibody cocktail), the “EpCAM + CD44+ cell subpopulation” value is 16.8 percentage of gated cells, the “EpCAM + CD44− cell subpopulation” value was 4.89 percentage of gated cells, the “EpCAM − CD44+ cell subpopulation” value was 2.12 percentage of gated cells and the “EpCAM − CD44− cell subpopulation” value is 74.9 percentage of gated cells.

Il-8: in experiment [3], the “EpCAM + CD133+ cell subpopulation” value is 0.13 percentages of gated subpopulations, the “EpCAM + CD133− cell subpopulation” value is listed as 2.51 percentages of gated subpopulations, the “EpCAM − CD133+ cell subpopulation” value is 0.09 percentages of gated subpopulations and the “EpCAM − CD133− cell subpopulation” value is recorded as 90.8 percentages of gated subpopulations.
